What was measured:
[1] = target: T1, HDAC6 human recombinant (Homo sapiens, UniProt Q9UBN7); assay: HDAC enzyme activity inhibition (in vitro), HDAC6 assay; format: biochemical; settings: samples at 0.1, 1, 10, 100 and 1000 nM; 37° C. 60 minutes; fluorescence Ex 390, Em 460; read-out: HDAC6 IC50
T1 construct: purchased Calbiochem 382180
T1 sequence (Q9UBN7 1-1215): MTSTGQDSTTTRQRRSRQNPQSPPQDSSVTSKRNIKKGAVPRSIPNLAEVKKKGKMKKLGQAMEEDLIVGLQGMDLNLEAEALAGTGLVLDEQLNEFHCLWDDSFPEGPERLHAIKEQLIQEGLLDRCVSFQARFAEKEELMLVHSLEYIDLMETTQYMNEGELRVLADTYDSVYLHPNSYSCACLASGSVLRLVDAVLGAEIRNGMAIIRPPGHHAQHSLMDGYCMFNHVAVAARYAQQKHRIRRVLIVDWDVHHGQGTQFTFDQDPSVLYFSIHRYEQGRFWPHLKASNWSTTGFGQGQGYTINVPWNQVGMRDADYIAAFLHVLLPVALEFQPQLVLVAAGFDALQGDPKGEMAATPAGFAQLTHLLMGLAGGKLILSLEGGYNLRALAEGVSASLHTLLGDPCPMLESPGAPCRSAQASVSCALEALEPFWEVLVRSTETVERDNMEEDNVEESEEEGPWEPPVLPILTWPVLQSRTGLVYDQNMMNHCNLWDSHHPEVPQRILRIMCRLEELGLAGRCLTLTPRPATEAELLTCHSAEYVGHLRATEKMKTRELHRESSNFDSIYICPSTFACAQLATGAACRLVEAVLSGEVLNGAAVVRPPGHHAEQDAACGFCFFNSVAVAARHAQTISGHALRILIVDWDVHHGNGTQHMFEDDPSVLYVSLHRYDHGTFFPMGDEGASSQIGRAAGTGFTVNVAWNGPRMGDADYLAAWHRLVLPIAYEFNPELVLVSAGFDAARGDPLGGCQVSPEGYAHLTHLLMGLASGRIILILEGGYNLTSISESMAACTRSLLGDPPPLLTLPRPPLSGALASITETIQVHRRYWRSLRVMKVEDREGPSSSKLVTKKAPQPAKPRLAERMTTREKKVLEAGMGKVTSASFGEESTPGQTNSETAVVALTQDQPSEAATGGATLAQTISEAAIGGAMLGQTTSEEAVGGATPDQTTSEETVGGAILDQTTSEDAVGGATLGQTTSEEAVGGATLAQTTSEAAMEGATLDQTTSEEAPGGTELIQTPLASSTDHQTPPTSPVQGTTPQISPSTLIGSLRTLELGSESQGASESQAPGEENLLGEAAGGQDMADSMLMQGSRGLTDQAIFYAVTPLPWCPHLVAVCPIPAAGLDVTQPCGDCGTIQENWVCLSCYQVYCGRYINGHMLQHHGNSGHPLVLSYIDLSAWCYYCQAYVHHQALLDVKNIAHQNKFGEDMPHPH
Summary of the method: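 Fluorescence (Ex 390, Em 460) read after a 37° C, 60 min enzyme reaction and a further 30 min developer step at 37° C. Uses recombinant human HDAC6; HDAC1 arm dosed at 100, 1000, 10000 nM.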

[2] = target: T2, HDAC1 (Homo sapiens, UniProt Q13547); assay: HDAC enzyme activity inhibition (in vitro), HDAC1 Fluorimetric Drug Discovery Assay Kit; format: biochemical; settings: samples at 100, 1000 and 10000 nM; 37° C. 60 minutes; fluorescence Ex 390, Em 460; read-out: HDAC1 IC50
T2 construct: purchased Enzolifesciences BML-AK511
Summary of the method: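 Fluorescence read-out (Ex 390/Em 460) after developer step, 30 min at 37° C, following a 60-min 37° C enzyme reaction. Test concentrations: HDAC1 kit, 100–10000 nM (three levels); recombinant human HDAC6, 0.1–1000 nM (five levels).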

T2 sequence (Q13547 whole entry): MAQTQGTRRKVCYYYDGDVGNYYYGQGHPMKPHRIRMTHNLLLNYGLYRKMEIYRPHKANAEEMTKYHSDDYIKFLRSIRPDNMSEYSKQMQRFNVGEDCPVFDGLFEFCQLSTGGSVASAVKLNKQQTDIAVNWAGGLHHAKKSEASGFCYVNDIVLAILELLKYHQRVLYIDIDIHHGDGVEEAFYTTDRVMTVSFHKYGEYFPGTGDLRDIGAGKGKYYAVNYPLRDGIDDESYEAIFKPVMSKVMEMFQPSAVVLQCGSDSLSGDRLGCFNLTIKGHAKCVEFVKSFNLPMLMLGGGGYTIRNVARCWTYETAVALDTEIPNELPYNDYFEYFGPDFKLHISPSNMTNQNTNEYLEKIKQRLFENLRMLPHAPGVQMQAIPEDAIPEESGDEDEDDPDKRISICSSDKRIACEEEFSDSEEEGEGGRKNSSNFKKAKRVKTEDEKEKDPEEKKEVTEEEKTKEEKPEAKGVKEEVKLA

| IC50 [1] | IC50 [2] | SMILES |
| --- | --- | --- |
| 554 nM | > 10000 nM | CC(=O)N1CCC(n2c(=O)n(Cc3ccc(-c4nnc(C(F)F)o4)cc3)c3ncccc32)CC1 [Compound 186, 1-(1-acetylpiperidine-4-yl)-3-(4-(5-(difluoromethyl)-1,3,4-oxadiazole-2-yl)benzyl)-1,3-dihydro-2H-imidazo[4,5-b]pyridine-2-one] |
| 31 nM | > 10000 nM | CC(C)N1CCC(n2c(=O)n(Cc3ccc(-c4nnc(C(F)F)o4)cc3F)c3cc(F)ccc32)CC1 [Compound 70, 3-(4-(5-(difluoromethyl)-1,3,4-oxadiazole-2-yl)-2-fluorobenzyl)-5-fluoro-1-(1-isopropylpiperidine-4-yl)-1,3-dihydro-2H-benzo[d]imidazole-2-one] |
| 167 nM | > 10000 nM | O=c1n(Cc2ccc(-c3nnc(C(F)F)o3)cc2F)c2ccccc2n1CC1CCN(C2COC2)CC1 [Compound 39, 1-(4-(5-(difluoromethyl)-1,3,4-oxadiazole-2-yl)-2-fluorobenzyl)-3-((1-(oxetan-3-yl)piperidine-4-yl)methyl)-1,3-dihydro-2H-benzo[d]imidazole-2-one] |
| 40 nM | > 10000 nM | CS(=O)(=O)N1CCC(n2c(=O)n(Cc3ccc(-c4nnc(C(F)F)o4)cn3)c3ccc(Cl)cc32)CC1 [Compound 200, 5-chloro-1-((5-(5-(difluoromethyl)-1,3,4-oxadiazole-2-yl)pyridine-2-yl)methyl)-3-(1-(methylsulfonyl)piperidine-4-yl)-1,3-dihydro-2H-benzo[d]imidazole-2-one] |
| 43 nM | > 10000 nM | O=c1oc2cc(-c3ccc(CN4CCOCC4)nc3)c(F)cc2n1Cc1ccc(-c2nnc(C(F)F)o2)cn1 [Compound 332, 3-((5-(5-(difluoromethyl)-1,3,4-oxadiazole-2-yl)pyridine-2-yl)methyl)-5-fluoro-6-(6-(morpholinomethyl)pyridine-3-yl)benzo[d]oxazole-2(3H)-one] |
| 21 nM | > 10000 nM | Cn1nccc1-c1ccc2c(c1)n(C)c(=O)n2Cc1ccc(-c2nnc(C(F)F)o2)cn1 [Compound 222, 1-((5-(5-(difluoromethyl)-1,3,4-oxadiazole-2-yl)pyridine-2-yl)methyl)-3-methyl-5-(1-methyl-1H-pyrazole-5-yl)-1,3-dihydro-2H-benzo[d]imidazole-2-one] |
| 322 nM | > 10000 nM | Cn1c(=O)n(Cc2ccc(-c3nnc(C(F)F)o3)cc2F)c2cc(-c3ccncc3)ccc21 [Compound 111, 3-(4-(5-(difluoromethyl)-1,3,4-oxadiazole-2-yl)-2-fluorobenzyl)-1-methyl-5-(pyridine-4-yl)-1,3-dihydro-2H-benzo[d]imidazole-2-one] |
| 33 nM | > 10000 nM | O=c1oc2cc(-c3ccc(N4CCN(C5COC5)CC4)nc3)c(F)cc2n1Cc1ccc(-c2nnc(C(F)F)o2)cn1 [Compound 350, 3-((5-(5-(difluoromethyl)-1,3,4-oxadiazole-2-yl)pyridine-2-yl)methyl)-5-fluoro-6-(6-(4-(oxetan-3-yl)piperazine-1-yl)pyridine-3-yl)benzo[d]oxazole-2(3H)-one] |
| 15 nM | > 10000 nM | CN1CCC[C@@H](n2c(=O)n(Cc3ccc(-c4nnc(C(F)F)o4)cn3)c3cc(F)c(-c4cccc5[nH]ccc45)cc32)C1 [Compound 276, (R)-1-((5-(5-(difluoromethyl)-1,3,4-oxadiazole-2-yl)pyridine-2-yl)methyl)-6-fluoro-5-(1H-indole-4-yl)-3-(1-methylpiperidine-3-yl)-1,3-dihydro-2H-benzo[d]imidazole-2-one] |
| 9 nM | > 10000 nM | O=c1sc2cc(-c3cccnc3)ccc2n1Cc1ccc(-c2nnc(C(F)F)o2)cn1 [Compound 231, 3-((5-(5-(difluoromethyl)-1,3,4-oxadiazole-2-yl)pyridine-2-yl)methyl)-6-(pyridine-3-yl) benzo[d]thiazole-2(3H)-one] |
| 61 nM | > 10000 nM | O=c1n(Cc2ccc(-c3nnc(C(F)F)o3)cc2)c2cc(F)ccc2n1C1CCN(C2COC2)CC1 [Compound 80, 3-(4-(5-(difluoromethyl)-1,3,4-oxadiazole-2-yl)benzyl)-5-fluoro-1-(1-(oxetan-3-yl)piperidine-4-yl)-1,3-dihydro-2H-benzo[d]imidazole-2-one] |
| 14 nM | > 10000 nM | O=c1n(Cc2ccc(-c3nnc(C(F)F)o3)cn2)c2cc(F)c(-c3ccncc3)cc2n1[C@@H]1CCN(C2COC2)C1 [Compound 287, (R)-1-((5-(5-(difluoromethyl)-1,3,4-oxadiazole-2-yl)pyridine-2-yl)methyl)-6-fluoro-3-(1-(oxetan-3-yl)pyrrolidine-3-yl)-5-(pyridine-4-yl)-1,3-dihydro-2H-benzo[d]imidazole-2-one] |
| 46 nM | > 10000 nM | O=c1oc2cc(Cl)ccc2n1Cc1ccc(-c2nnc(C(F)F)o2)cn1 [Compound 265, 6-chloro-3-((5-(5-(difluoromethyl)-1,3,4-oxadiazole-2-yl)pyridine-2-yl)methyl)benzo[d]oxazole-2(3H)-one] |
| 58 nM | > 10000 nM | CS(=O)(=O)N1CCC(n2c(=O)n(Cc3ccc(-c4nnc(C(F)F)o4)cn3)c3ccccc32)CC1 [Compound 206, 1-((5-(5-(difluoromethyl)-1,3,4-oxadiazole-2-yl)pyridine-2-yl)methyl)-3-(1-(methylsulfonyl)piperidine-4-yl)-1,3-dihydro-2H-benzo[d]imidazole-2-one] |
| 8 nM | > 10000 nM | O=c1n(Cc2ccc(-c3nnc(C(F)F)o3)cn2)c2cc(F)c(-c3cccnc3)cc2n1[C@@H]1CCCN(C2COC2)C1 [Compound 293, (R)-1-((5-(5-(difluoromethyl)-1,3,4-oxadiazole-2-yl)pyridine-2-yl)methyl)-6-fluoro-3-(1-(oxetan-3-yl)piperidine-3-yl)-5-(pyridine-3-yl)-1,3-dihydro-2H-benzo[d]imidazole-2-one] |
| 84 nM | > 10000 nM | CS(=O)(=O)N1CCC(n2c(=O)n(Cc3ccc(-c4nnc(C(F)F)o4)cc3)c3cc(F)c(F)cc32)CC1 [Compound 194, 1-(4-(5-(difluoromethyl)-1,3,4-oxadiazole-2-yl)benzyl)-5,6-difluoro-3-(1-(methylsulfonyl)piperidine-4-yl)-1,3-dihydro-2H-benzo[d]imidazole-2-one] |
| 12 nM | > 10000 nM | CN1CC(n2c(=O)n(Cc3ccc(-c4nnc(C(F)F)o4)cn3)c3cc(F)c(-c4cccc5[nH]ccc45)cc32)C1 [Compound 257, 1-((5-(5-(difluoromethyl)-1,3,4-oxadiazole-2-yl)pyridine-2-yl)methyl)-6-fluoro-5-(1H-indole-4-yl)-3-(1-methylazetidine-3-yl)-1,3-dihydro-2H-benzo[d]imidazole-2-one] |
| 299 nM | > 10000 nM | O=c1n(Cc2ccc(-c3nnc(C(F)F)o3)cc2F)c2ccccc2n1C1CCN(C2COC2)C1 (centres unmarked) [Compound 21, 1-(4-(5-(difluoromethyl)-1,3,4-oxadiazole-2-yl)-2-fluorobenzyl)-3-(1-(oxetan-3-yl)pyrrolidine-3-yl)-1,3-dihydro-2H-benzo[d]imidazole-2-one] |
| 283 nM | > 10000 nM | O=c1n(Cc2ccc(-c3nnc(C(F)F)o3)cc2F)c2ncccc2n1C1CCN(C2COC2)CC1 [Compound 104, 3-(4-(5-(difluoromethyl)-1,3,4-oxadiazole-2-yl)-2-fluorobenzyl)-1-(1-(oxetan-3-yl)piperidine-4-yl)-1,3-dihydro-2H-imidazo[4,5-b]pyridine-2-one] |

— patent US20230092890A1, “1, 3, 4-Oxadiazole derivative compounds as histone deacetylase 6 inhibitor, and the pharmaceutical composition comprising the same” (Chong Kun Dang Pharmaceutical Corp., priority 2019, published 2023)
